# Data published in patent publication US8815872B2, “Macrocyclics pyrimidines as aurora kinase inhibitors” (Merck Patent GmbH, priority 2008, dated 2014).
# Experiments:
# Assay in all cases: Other kinases, single-concentration inhibition (Table 3)
# Type in all cases: biochemical
# [1] = molecular target: T1, Abl(h) (Homo sapiens, UniProt P00519)
# T1 construct: purchased Caliper Life Sciences
# Procedure: (§1) The Aurora and other kinase assays described here were performed on two Caliper Life Sciences systems, the LC3000 and the Desktop Profiler. These provide data on enzyme activity via measurement of the relative amounts of phosphorylated or unphosphorylated fluorescently labelled substrate peptide at the end of an enzymatic reaction. These different states of peptide are resolved by applying a potential difference across the sample. The presence of a charged phosphate group on the product (as opposed to the substrate) causes a different peptide mobility between the two peptides. This is visualized by excitation of a fluorescent label on the substrate and product peptides and represented as peaks within the analysis software.
# (§2) The Desktop Profiler utilizes the same principal as the LC 3000 for calculating percentage conversion of a substrate to product. Caliper Life Sciences provided proprietary flash frozen pre-made 384 well plates containing selected kinases. Each column in the 384 well plate contained a particular selected kinase. A second plate, the ‘substrate plate’ contained a mix of fluorescently labeled peptide substrate and ATP. These were arranged in columns so that transfer for substrate plate to enzyme plate provided the correct enzyme with the correct substrate/ATP concentration.
# (§3) Compounds were added to a thawed enzyme plate in the desired format, in single concentrations. Reactions were initiated by transfer of the ubstrate/ATP mix from the substrate plate. The enzyme plate was incubated for 90 mins at 25 °C. The reaction was stopped by addition of […] of Stop Buffer (100 mM HEPES pH 7.5, 0.015% Brij-35, 10 mM EDTA (Sigma, E7889)).
# (§4) Plates were read in a manner identical to that of the LC3000, and the ratio between substrate and product peaks provided the activity of the enzyme in that well. This was best represented by a plate heat map which colors each well by percent inhibition as compared to positive and negative controls (no inhibitors and no ATP respectively).
# [2] = molecular target: T2, Tie2(R849W)(h) (Homo sapiens, UniProt Q02763, R849W)
# T2 construct: purchased Caliper Life Sciences
# Procedure: as §1, §2, §3, §4
# [3] = molecular target: T3, Abl(T315I)(h) (Homo sapiens, UniProt P00519, T315I)
# T3 construct: purchased Caliper Life Sciences
# Procedure: as §1, §2, §3, §4
# [4] = molecular target: T4, Tie2(h) (Homo sapiens, UniProt Q02763)
# T4 construct: purchased Caliper Life Sciences
# Procedure: as §1, §2, §3, §4
# [5] = molecular target: T5, Flt3(h) (Homo sapiens, UniProt P36888)
# T5 construct: purchased Caliper Life Sciences
# T5 sequence (P36888 27-993): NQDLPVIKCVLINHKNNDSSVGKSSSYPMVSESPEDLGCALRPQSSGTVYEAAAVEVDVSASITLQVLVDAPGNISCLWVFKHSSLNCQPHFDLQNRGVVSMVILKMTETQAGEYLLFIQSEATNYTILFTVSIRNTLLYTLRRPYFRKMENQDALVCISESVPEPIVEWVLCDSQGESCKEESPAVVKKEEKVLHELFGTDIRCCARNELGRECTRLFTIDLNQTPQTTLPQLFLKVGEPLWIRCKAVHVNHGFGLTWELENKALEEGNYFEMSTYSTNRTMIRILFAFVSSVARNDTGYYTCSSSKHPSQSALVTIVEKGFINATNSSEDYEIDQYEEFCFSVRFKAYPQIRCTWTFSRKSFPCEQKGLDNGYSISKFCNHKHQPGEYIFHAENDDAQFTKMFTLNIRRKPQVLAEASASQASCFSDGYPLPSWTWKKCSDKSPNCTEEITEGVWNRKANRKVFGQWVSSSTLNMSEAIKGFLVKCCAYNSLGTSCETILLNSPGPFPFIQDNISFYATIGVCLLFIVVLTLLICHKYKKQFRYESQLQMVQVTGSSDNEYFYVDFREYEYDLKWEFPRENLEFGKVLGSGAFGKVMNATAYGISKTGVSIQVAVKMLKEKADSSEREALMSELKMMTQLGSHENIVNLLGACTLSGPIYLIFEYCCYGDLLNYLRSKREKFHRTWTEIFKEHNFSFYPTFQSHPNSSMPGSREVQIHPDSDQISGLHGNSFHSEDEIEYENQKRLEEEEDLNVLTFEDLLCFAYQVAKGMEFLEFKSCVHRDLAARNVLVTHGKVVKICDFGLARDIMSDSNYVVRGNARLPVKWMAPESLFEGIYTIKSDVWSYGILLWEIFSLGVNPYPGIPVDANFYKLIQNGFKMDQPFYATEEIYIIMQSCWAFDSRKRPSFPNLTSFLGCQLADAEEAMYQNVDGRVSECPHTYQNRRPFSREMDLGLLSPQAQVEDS
# Procedure: as §1, §2, §3, §4
# [6] = molecular target: T6, Met(h) (Homo sapiens, UniProt P08581)
# T6 construct: purchased Caliper Life Sciences
# Procedure: as §1, §2, §3, §4
# [7] = molecular target: T7, Hck(h) (Homo sapiens, UniProt P08631)
# T7 construct: purchased Caliper Life Sciences
# Procedure: as §1, §2, §3, §4
# [8] = molecular target: T8, ZAP-70(h) (Homo sapiens, UniProt P43403)
# T8 construct: purchased Caliper Life Sciences
# T8 sequence (P43403 1-619): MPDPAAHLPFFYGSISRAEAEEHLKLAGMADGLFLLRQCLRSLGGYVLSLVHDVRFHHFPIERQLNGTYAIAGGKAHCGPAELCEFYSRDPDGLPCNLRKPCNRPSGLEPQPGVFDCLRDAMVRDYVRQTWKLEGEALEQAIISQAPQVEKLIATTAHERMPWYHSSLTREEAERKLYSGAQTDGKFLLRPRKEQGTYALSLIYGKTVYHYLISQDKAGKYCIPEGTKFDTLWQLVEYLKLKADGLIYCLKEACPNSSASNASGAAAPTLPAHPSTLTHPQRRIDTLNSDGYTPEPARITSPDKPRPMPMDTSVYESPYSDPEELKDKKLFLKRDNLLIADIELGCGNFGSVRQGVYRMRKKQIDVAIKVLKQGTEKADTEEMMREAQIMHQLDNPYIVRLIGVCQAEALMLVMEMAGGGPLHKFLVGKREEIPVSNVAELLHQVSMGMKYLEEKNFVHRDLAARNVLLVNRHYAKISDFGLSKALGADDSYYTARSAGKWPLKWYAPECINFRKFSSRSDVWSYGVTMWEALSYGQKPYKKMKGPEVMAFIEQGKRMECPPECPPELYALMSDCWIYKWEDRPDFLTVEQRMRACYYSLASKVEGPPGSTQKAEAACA
# Procedure: as §1, §2, §3, §4
# [9] = molecular target: T9, ROCK-II(h) (Homo sapiens, UniProt O75116)
# T9 construct: purchased Caliper Life Sciences
# Procedure: as §1, §2, §3, §4
# [10] = molecular target: T10, TrkA(h) (Homo sapiens, UniProt P04629)
# T10 construct: purchased Caliper Life Sciences
# Procedure: as §1, §2, §3, §4
# [11] = molecular target: T11, PDGFRβ(h) (Homo sapiens, UniProt P09619)
# T11 construct: purchased Caliper Life Sciences
# Procedure: as §1, §2, §3, §4
# T10 sequence (P04629 33-796): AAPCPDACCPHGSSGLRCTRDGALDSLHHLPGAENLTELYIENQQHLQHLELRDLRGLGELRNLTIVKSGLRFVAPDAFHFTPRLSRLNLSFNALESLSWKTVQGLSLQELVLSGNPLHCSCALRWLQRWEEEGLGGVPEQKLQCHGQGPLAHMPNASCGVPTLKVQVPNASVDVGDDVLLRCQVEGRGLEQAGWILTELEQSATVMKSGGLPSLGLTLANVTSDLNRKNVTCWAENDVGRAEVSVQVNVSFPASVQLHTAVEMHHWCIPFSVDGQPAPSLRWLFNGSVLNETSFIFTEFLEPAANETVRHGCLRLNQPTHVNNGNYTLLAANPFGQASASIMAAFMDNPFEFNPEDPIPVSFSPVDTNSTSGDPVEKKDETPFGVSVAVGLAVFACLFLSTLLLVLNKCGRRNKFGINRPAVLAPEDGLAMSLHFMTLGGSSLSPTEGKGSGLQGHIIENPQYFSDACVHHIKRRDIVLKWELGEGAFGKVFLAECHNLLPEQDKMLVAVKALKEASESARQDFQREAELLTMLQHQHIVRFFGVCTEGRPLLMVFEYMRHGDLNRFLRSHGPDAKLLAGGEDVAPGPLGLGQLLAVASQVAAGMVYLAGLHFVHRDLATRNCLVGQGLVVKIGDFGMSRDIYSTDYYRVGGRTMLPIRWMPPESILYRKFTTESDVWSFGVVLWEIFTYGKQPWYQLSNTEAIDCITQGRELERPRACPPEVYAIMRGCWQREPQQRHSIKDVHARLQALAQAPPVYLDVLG
# T9 sequence (O75116 whole entry): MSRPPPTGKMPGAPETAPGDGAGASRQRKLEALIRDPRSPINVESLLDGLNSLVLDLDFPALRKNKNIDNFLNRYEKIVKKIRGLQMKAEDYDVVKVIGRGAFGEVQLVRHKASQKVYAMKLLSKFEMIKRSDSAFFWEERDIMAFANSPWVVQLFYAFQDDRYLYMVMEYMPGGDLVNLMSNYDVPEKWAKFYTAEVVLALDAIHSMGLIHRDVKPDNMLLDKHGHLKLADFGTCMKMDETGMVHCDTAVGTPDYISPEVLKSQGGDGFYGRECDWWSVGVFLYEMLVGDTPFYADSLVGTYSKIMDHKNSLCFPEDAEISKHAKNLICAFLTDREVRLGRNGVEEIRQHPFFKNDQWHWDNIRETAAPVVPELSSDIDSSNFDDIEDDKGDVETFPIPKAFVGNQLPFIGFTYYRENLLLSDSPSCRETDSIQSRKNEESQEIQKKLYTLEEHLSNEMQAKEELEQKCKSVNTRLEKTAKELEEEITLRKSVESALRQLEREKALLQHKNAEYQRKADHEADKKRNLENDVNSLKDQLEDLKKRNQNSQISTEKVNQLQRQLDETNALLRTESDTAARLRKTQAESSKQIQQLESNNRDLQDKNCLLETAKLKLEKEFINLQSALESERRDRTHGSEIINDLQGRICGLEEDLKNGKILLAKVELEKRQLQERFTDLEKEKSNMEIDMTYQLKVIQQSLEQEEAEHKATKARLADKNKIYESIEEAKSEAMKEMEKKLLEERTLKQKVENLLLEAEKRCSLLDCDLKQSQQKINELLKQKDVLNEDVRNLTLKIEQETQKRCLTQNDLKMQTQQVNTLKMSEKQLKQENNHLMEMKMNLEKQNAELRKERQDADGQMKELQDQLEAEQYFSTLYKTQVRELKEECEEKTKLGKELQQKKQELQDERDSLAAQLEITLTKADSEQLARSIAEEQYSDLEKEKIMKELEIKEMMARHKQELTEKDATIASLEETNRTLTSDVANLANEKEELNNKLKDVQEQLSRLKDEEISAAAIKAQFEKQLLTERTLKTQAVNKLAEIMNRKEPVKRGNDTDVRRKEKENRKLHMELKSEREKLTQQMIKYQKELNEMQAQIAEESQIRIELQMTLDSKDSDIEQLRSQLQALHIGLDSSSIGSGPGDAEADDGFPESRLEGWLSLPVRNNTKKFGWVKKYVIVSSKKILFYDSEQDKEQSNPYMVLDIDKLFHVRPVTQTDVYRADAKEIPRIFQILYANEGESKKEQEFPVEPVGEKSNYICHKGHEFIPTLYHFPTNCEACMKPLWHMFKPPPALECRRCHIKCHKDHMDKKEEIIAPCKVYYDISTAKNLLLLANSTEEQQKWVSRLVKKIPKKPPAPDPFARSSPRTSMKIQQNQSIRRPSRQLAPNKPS
# T7 sequence (P08631 whole entry): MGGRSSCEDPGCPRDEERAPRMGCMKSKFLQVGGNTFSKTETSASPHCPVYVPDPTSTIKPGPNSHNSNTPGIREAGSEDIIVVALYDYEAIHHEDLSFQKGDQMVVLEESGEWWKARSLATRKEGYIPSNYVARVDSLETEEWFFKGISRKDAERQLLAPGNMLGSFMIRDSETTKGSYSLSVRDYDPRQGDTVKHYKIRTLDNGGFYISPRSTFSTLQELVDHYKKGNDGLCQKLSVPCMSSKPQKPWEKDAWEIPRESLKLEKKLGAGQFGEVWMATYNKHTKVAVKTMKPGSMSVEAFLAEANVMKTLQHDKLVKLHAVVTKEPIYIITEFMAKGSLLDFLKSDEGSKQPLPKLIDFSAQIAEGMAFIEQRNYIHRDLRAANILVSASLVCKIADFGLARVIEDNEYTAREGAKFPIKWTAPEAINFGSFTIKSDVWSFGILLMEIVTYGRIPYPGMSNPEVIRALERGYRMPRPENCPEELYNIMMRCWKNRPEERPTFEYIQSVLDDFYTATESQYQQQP
# T2 sequence (Q02763 23-1124 R849W): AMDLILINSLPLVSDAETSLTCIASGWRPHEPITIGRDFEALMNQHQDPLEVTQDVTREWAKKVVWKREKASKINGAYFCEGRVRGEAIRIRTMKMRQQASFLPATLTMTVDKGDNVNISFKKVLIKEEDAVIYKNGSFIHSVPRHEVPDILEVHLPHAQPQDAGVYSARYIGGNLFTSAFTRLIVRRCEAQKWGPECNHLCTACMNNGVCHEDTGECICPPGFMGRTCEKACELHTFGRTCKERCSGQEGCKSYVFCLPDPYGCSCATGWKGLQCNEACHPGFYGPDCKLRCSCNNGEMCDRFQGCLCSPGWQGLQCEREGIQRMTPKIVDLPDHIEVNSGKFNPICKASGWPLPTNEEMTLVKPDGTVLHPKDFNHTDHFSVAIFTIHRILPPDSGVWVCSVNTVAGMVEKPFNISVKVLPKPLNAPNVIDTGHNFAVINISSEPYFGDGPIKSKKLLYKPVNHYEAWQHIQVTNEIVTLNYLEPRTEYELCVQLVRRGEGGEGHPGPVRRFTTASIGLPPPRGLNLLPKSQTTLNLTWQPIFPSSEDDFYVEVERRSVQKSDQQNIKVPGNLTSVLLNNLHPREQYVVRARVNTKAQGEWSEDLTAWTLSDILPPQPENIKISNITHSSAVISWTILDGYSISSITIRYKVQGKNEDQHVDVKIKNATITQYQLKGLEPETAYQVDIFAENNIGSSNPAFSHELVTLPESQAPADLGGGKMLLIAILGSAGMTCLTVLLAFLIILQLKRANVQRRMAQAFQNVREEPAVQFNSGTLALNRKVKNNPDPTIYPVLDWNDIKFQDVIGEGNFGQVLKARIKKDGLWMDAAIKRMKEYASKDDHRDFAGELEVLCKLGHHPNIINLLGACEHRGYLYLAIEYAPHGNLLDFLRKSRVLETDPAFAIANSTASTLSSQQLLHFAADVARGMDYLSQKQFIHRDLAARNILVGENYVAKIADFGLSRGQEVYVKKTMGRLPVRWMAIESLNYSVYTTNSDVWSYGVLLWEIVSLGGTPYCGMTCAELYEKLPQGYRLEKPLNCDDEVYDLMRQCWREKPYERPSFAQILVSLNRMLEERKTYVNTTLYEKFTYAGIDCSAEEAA
# T4 sequence (Q02763 23-1124): as the sequence (Q02763 23-1124 R849W) above, with W827R counted along it
# T11 sequence (P09619 33-1106): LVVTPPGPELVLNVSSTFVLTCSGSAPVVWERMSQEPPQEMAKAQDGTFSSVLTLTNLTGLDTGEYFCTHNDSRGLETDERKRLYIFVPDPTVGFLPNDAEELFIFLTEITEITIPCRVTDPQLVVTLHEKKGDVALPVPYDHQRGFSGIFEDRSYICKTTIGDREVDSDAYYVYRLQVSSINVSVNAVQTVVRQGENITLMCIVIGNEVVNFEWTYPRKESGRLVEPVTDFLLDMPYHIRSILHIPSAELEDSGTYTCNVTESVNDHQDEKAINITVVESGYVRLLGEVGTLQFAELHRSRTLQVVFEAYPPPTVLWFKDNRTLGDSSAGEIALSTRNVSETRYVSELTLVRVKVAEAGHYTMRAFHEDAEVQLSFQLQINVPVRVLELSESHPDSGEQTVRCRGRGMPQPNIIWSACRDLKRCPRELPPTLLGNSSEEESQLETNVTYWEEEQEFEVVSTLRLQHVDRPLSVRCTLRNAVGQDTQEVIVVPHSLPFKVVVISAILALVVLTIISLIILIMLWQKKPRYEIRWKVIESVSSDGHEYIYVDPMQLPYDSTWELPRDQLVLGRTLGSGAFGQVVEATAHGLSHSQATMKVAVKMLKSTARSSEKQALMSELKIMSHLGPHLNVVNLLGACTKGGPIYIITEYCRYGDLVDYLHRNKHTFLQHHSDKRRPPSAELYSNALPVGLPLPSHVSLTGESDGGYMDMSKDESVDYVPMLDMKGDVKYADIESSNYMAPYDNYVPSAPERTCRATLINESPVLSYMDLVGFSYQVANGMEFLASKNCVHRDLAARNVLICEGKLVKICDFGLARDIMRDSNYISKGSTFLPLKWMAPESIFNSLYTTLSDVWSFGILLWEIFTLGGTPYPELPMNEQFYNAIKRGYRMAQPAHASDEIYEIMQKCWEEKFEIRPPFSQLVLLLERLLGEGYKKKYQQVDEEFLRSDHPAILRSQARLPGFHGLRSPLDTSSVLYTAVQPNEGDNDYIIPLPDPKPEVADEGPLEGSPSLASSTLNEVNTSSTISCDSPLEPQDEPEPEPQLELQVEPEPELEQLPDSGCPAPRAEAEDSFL
SMILES,inhibition at 1 µM [1] [%],% inhibition Tie2(R849W)(h) ([2]; 1 μM) [%],% inhibition Abl(T315I)(h) ([3]; 1 μM) [%],% inhibition Tie2(h) ([4]; 1 μM) [%],% inhibition Flt3(h) ([5]; 1 μM) [%],% inhibition Met(h) ([6]; 1 μM) [%],% inhibition Hck(h) ([7]; 1 μM) [%],% inhibition ZAP-70(h) ([8]; 1 μM) [%],% inhibition ROCK-II(h) ([9]; 1 μM) [%],% inhibition TrkA(h) ([10]; 1 μM) [%],% kinase activity remaining ([11]; 1 μM) [%],further results
NC(=O)[C@H]1[C@H]2C[C@H]3[C@H]1Nc1nc(ncc1F)Nc1cccc(c1)CSS[C@@H]3C2 [Example 10],101,41,47,101,65,41,13,118,90,0,149,–
CN1CCN(c2ccc3cc2NC(=O)CS[C@@H]2C[C@@H]4C[C@H]2[C@@H](Nc2nc(ncc2F)N3)[C@H]4C(N)=O)CC1 [Example 24],-4,28,0,8,21,63,6,112,120,5,95,–
NC(=O)[C@H]1[C@H]2C[C@H]3[C@H]1Nc1nc(ncc1F)Nc1cccc(c1)C(=O)CS[C@@H]3C2 [Example 11],92,103,95,91,102,125,92,124,102,8,93,–
NC(=O)[C@H]1[C@H]2C[C@H]3[C@H]1Nc1nc(ncc1F)Nc1cccc(c1)OCCS[C@@H]3C2 [Example 20],79,14,34,8,16,60,23,122,99,1,110,–
"CC[C@@H]1C[C@@H]2CCCOc3cccc(c3)Nc3ncc(F)c(n3)N[C@H]2[C@H]1C(N)=O (single isomer, unassigned) [Example 5]",105,92,103,104,117,114,123,122,105,60,117,–
O=C(O)[C@H]1[C@H]2C[C@H]3[C@H]1Nc1nc(ncc1F)Nc1cccc(c1)OCCS[C@@H]3C2 [Example 21],–,–,–,–,–,–,–,–,–,–,–,inhibition at 10 µM ([1]; 10 μM): 44%; % inhibition Tie2(R849W)(h) ([2]; 10 μM): 35%; % inhibition Abl(T315I)(h) ([3]; 10 μM): 38%; % inhibition Tie2(h) ([4]; 10 μM): 33%; % inhibition Flt3(h) ([5]; 10 μM): 2%; % inhibition Met(h) ([6]; 10 μM): 30%; % inhibition Hck(h) ([7]; 10 μM): 39%; % inhibition ZAP-70(h) ([8]; 10 μM): 94%; % inhibition ROCK-II(h) ([9]; 10 μM): 94%; % inhibition TrkA(h) ([10]; 10 μM): 15%; % kinase activity remaining ([11]; 10 μM): 104%
CN1CCN(c2ccc3cc2OCCS[C@@H]2C[C@@H]4C[C@H]2[C@@H](Nc2nc(ncc2F)N3)[C@H]4C(N)=O)CC1 [Example 22],-4,57,13,46,24,46,28,–,92,−1,112,–
"CC[C@@H]1C[C@@H]2/C=C\COc3cccc(c3)Nc3ncc(F)c(n3)N[C@H]2[C@H]1C(N)=O (single isomer, unassigned) [Example 6]",99,91,89,119,116,122,110,125,97,50,107,–
